Patent US9662319B2 (Mayo Foundation for Medical Education and Research, priority 2011, dated 2017)

Key:
[1] = system: CRBN depleted myeloma cell lines; experiment: MTT cell viability of CRBN shRNA knock-down myeloma cell lines versus NT control cells in presence of anti-myeloma drugs; format: cell-based, human; conditions: sorted GFP positive myeloma cell lines with CRBN knock-down
Protocol: (§1) The lentiviruses expressing NT or CRBN shRNAs were subcloned into a GFP containing construct and used to infect various myeloma cell lines as described elsewhere (Zhu et al., Blood, 117(14):3847-3857 (2011); Epublished Feb. 2, 2011). After a 48-hour infection period, efficiency was measured at 72 hours and 6 days post infection by FACScan analysis of GFP expression. Cell viability was measured by 3-(4,5-dimethylthiazol)-2,5-diphenyl tetrazolium (MTT) dye absorbance according to the manufacturer's instructions (Boehringer Mannheim, Mannheim, Germany). Cells were also harvested at 72 hours post infection for real-time PCR analysis of CRBN levels in control and CRBN shRNA expressing cells. At three weeks post infection, GFP-positive cells were sorted and expanded. Real-time PCR was performed to measure CRBN levels in sorted cells.
Plates were incubated for 72 hours to six days. Cell viability was determined using an MTT assay. Each experimental condition was performed in triplicate and repeated at least once.
Proliferation of those CRBN depleted but surviving MM cells were then tested in the absence or presence of different anti-myeloma drugs.

[2] = system: human MM cells lines; experiment: MTT assay, baseline cytotoxicity on a panel of human MM cell lines; format: cell-based; conditions: 11 tested MM cell lines, 1.6 μM to 50 μM, 72 hours, in vitro
Protocol: as §1
In some experiments, cells were incubated with various doses of lenalidomide, dexamethasone, melphalan, or bortezomib. Plates were incubated for 72 hours to six days. Cell viability was determined using an MTT assay. Each experimental condition was performed in triplicate and repeated at least once.
A MTT assay was performed on a panel of genetically heterogeneous human MM cells lines in vitro (FIG. 1). […] The same dose of thalidomide, however, had no effect on MM cell growth.

| Compound | sensitivity of CRBN knock-down cells compared with NT control cells [1] | growth of MM cell lines (MTT) [2] |
| --- | --- | --- |
| CC(C)C[C@H](NC(=O)[C@H](Cc1ccccc1)NC(=O)c1cnccn1)B(O)O [Bortezomib] | more sensitive |  |
| Nc1cccc2c1CN(C1CCC(=O)NC1=O)C2=O (stereo not shown) [Lenalidomide] |  | inhibited growth of 8 of 11 tested MM cell lines |
| Nc1cccc2c1C(=O)N(C1CCC(=O)NC1=O)C2=O (stereo not shown) [pomalidomide] | resistance |  |
| O=C1CCC(N2C(=O)c3ccccc3C2=O)C(=O)N1 (stereo not shown) [thalidomide] |  | no effect |
